Measurements published in PubChem BioAssay AID651581 (Sanford-Burnham Center for Chemical Genomics, 2012).
Active and inactive are the calls of the source. The rule behind the calls is not given here.

Columns and labels:
[1] = target: Hypoxia-inducible factor 1-alpha (Homo sapiens) (UniProt Q16665); assay: HIF-2a and HIF-1a reporter inhibition panel, dose response, selectivity assay for HIF-2a inhibitor project, cell-based, luminescence (AID 651581); details: HIF-1a
[2] = target: Endothelial PAS domain-containing protein 1 (Homo sapiens) (UniProt Q99814); assay: as above

Sequence of Hypoxia-inducible factor 1-alpha (Homo sapiens) (Q16665 whole entry, looked up, the tested form may be a part): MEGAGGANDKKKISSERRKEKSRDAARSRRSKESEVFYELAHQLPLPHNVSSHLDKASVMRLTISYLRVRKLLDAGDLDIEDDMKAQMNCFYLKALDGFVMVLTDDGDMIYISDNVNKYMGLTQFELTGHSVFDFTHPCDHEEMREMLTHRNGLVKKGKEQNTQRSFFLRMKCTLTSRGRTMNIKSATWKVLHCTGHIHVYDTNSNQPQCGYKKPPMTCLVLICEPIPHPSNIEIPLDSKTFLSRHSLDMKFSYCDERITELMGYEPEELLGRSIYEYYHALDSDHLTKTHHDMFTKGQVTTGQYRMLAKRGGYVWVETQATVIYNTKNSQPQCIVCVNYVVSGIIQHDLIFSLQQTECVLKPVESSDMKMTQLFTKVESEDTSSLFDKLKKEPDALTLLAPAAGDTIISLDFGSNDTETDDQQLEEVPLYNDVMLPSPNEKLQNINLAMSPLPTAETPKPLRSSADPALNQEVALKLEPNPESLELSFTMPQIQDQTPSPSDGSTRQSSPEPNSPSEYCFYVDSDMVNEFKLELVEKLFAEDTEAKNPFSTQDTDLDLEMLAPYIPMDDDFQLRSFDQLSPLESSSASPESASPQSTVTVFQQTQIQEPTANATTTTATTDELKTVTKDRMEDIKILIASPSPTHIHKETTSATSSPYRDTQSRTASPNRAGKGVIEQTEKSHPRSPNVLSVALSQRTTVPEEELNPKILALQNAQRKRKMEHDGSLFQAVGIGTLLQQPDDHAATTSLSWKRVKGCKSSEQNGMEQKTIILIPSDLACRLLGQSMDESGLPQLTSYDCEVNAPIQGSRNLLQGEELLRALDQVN

| SMILES | IC50 ([1]; run 1) [µM] | IC50 ([1]; run 2) [µM] | IC50 ([2]; HIF-2a PANC, mean of runs) | IC50 ([2]; HIF-2a PANC, run 1) [µM] | IC50 ([2]; HIF-2a PANC, run 2) [µM] | IC50 ([2]; HIF-2a, mean of runs) | IC50 ([2]; HIF-2a, run 1) [µM] | IC50 ([2]; HIF-2a, run 2) [µM] | IC50 ([1]; mean of runs) |
| --- | --- | --- | --- | --- | --- | --- | --- | --- | --- |
| Cc1nn(-c2ccccc2Cl)c(Cl)c1/C=N/Nc1cccc(C(=O)O)c1 | > 99 | > 99 | > 99 µM (inactive) | > 99 | > 99 | inactive | 23.5 | 24.2 | – |
| O=C(NCc1ccccc1)C(=O)Nc1cccc(C(=O)O)c1 | > 99 | > 99 | > 99 µM (inactive) | > 99 | > 99 | 9.97 µM | 9.98 | 9.95 | – |
| CC(C)(C)c1ccc(-c2noc(CCC(=O)NCc3ccco3)n2)cc1 | < 0.19 | 41.9 | < 3 µM | < 3 | < 3 | < 1 µM | < 1 | < 1 | – |
| N#Cc1c(NC(=O)CSc2ncn[nH]2)sc2c1CCCCC2 | > 99 | 1.47 | < 0.19 µM | < 0.19 | < 10 | < 0.3 µM | < 0.3 | < 0.3 | – |
| Cc1ccc(NC(=O)c2cc(N3C(=O)C=CC3=O)ccc2N2CCOCC2)cc1Cl | 60.4 | 39.3 | – | 76.3 | > 99 | 5.36 µM | 5.12 | 5.61 | 49.8 µM |
| Cc1cc(SC#N)cc(C)c1NC(=O)CCl | 20.2 | 28.5 | – | > 99 | 93.4 | inactive | 12.6 | 7.78 | inactive |
| Cc1c(CCC(=O)N2CCC[C@H]2C(=O)O)c(=O)oc2cc3oc4c(c3cc12)CCCC4 | 0.824 | 1.53 | 1.12 µM | 1.11 | 1.12 | 0.512 µM | 0.451 | 0.574 | inactive |
| O=C(O)c1ccc(N/N=C/c2ccc(C(F)(F)F)cc2)cc1 | 22.5 | 21.7 | inactive | 75.9 | 8.53 | 9.84 µM | 9.59 | 10.1 | inactive |
| Cc1csc(NC(=O)c2cn3ccccc3n2)n1 | 11.9 | 12.5 | 17.5 µM | 20.3 | 14.8 | 7.98 µM | 7.58 | 8.38 | inactive |
| COc1ccc(/C=C2\SC(=O)N(CCNC(=O)Cn3[nH]c(=O)c4ccccc4c3=O)C2=O)cc1 | 7.03 | 17.2 | 7.76 µM | 8.52 | 7.01 | inactive | 12 | 13.1 | inactive |
| O=C(c1ccccc1)N1CCSc2sccc2C1=O | 57.6 | 55.1 | 18.9 µM | 28 | 9.87 | 6.78 µM | 6.98 | 6.58 | 56.4 µM |
| O=C(Nc1ccc(NC(=S)NC(=O)c2ccco2)cc1)c1ccc(Br)cc1 | 0.639 | > 99 | > 99 µM (inactive) | > 99 | > 99 | 1.02 µM | 1.18 | 0.871 | – |

Other lines, results leading:

| IC50 ([1]; run 1) [µM] | IC50 ([1]; run 2) [µM] | IC50 ([2]; HIF-2a PANC, mean of runs) | IC50 ([2]; HIF-2a PANC, run 1) [µM] | IC50 ([2]; HIF-2a PANC, run 2) [µM] | IC50 ([2]; HIF-2a, mean of runs) | IC50 ([2]; HIF-2a, run 1) [µM] | IC50 ([2]; HIF-2a, run 2) [µM] | IC50 ([1]; mean of runs) | SMILES |
| --- | --- | --- | --- | --- | --- | --- | --- | --- | --- |
| 4.99 | 5.07 | 0.447 µM | 0.529 | 0.365 | 1.99 µM | 2.32 | 1.66 | inactive | CCOc1ccc(-c2cc(CCCC(=O)Nc3cc(OC)ccc3OC)no2)cc1 |
| 5.07 | 3.03 | inactive | 3.29 | 6.42 | 0.864 µM | 0.858 | 0.87 | 4.05 µM | Cc1ccc(C(=O)c2cccc(N)c2)cc1C |
| > 99 | > 99 | > 99 µM (inactive) | > 99 | > 99 | 7.89 µM | 7.68 | 8.1 | – | COc1ccc(OCc2cccc(C(=O)NN)c2)cc1 |
| 27.8 | 59 | inactive | 75.3 | 20.5 | inactive | 13.1 | 12.7 | 43.4 µM | O=C(O)COc1ccc2oc3ccccc3c2c1 |
| 18.8 | 16.8 | – | > 99 | 19.3 | – | < 30 | > 99 | inactive | O=C(O)c1ccc(N/N=C/c2ccc3ncccc3c2)cc1 |
| > 99 | > 99 | 2.81 µM | 3.03 | 2.6 | 1.97 µM | 1.87 | 2.07 | – | O=C(O)c1cccc(CSc2nnc(-c3ccc(Cl)cc3)o2)c1 |
